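In this assay, cells in 96-well plates receive the compound at five concentrations for 48 hours. Endpoints are linearly interpolated between the surrounding concentrations. GI50 = concentration required for 50% inhibition of growth.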 Active and inactive are the calls of the source. Rule as the data show it: active = GI50 up to about 1.1 µM and inactive = higher.
What was measured:
Test in all cases: NCI tumour cell line growth inhibition, 48 h
KM12 = test system: KM12
SK-MEL-28 = test system: SK-MEL-28
NCI-H23 = test system: NCI-H23
HL-60 = test system: HL-60
T47D = test system: T47D
HT-29 = test system: HT-29
TK-10 = test system: TK-10
HOP-92 = test system: HOP-92
NCI/ADR-RES = test system: NCI/ADR-RES
NCI-H226 = test system: NCI-H226
U-251 = test system: U-251
SW-620 = test system: SW-620
SNB-19 = test system: SNB-19
786-0 = test system: 786-0
UACC-62 = test system: UACC-62
PC-3 = test system: PC-3
K562 = test system: K562
MOLT-4 = test system: MOLT-4
RXF 393 = test system: RXF 393

SMILES | GI50 (KM12) | GI50 (SK-MEL-28) | GI50 (NCI-H23) | GI50 (HL-60) | GI50 (T47D) | GI50 (HT-29) | GI50 (TK-10) | GI50 (HOP-92) | GI50 (NCI/ADR-RES) | GI50 (NCI-H226) | GI50 (U-251) | GI50 (SW-620) | GI50 (SNB-19) | GI50 (786-0) | GI50 (UACC-62) | GI50 (PC-3) | GI50 (K562) | GI50 (MOLT-4) | GI50 (RXF 393)
Cc1ccc2c(c1)-c1nc(N)c(C#N)c(-c3ccc(Cl)cc3)c1CCS2(=O)=O | 33.3 µM (inactive) | 48.9 µM (inactive) | 39.4 µM (inactive) | 17.7 µM (inactive) | 33.2 µM (inactive) | 21.4 µM (inactive) | 66.4 µM (inactive) | 36.1 µM (inactive) | 36.2 µM (inactive) | 28.4 µM (inactive) | 40 µM (inactive) | 46 µM (inactive) | 50.6 µM (inactive) | 40.6 µM (inactive) | 28.2 µM (inactive) | 26.8 µM (inactive) |  |  | 
COC(=O)C1(C(=O)OC)Cc2ccc(C)cc2C2=C1C(=O)c1ccccc1C2=O | 16.6 µM (inactive) | 16.6 µM (inactive) | 18.2 µM (inactive) | 31.6 µM (inactive) | 7.71 µM (inactive) | 21.7 µM (inactive) | 57 µM (inactive) | 20 µM (inactive) | 12.6 µM (inactive) | > 100 µM (inactive) |  | 19.8 µM (inactive) | 58.6 µM (inactive) | 26.4 µM (inactive) | 13.8 µM (inactive) | 15.2 µM (inactive) | 18.2 µM (inactive) | 8.51 µM (inactive) | 
COc1ccc2c(c1)CCc1c-2n(CCN2CCCCC2)c2ccc(OC)cc12 |  | > 100 µM (inactive) | > 100 µM (inactive) |  | > 100 µM (inactive) | 9.12 µM (inactive) | > 100 µM (inactive) | > 10 µM (inactive) | 28.2 µM (inactive) | 10.4 µM (inactive) | > 100 µM (inactive) | > 100 µM (inactive) | > 100 µM (inactive) | > 100 µM (inactive) | > 100 µM (inactive) | > 100 µM (inactive) | 78.7 µM (inactive) | > 10 µM (inactive) | 
CC(C)C12CCC3(CCC4C(C)(C(=O)O)CCCC4(C)C3C1)C(CN)C2 (centres undefined) | 35.8 µM (inactive) | 39.7 µM (inactive) | 25.6 µM (inactive) |  | 55.2 µM (inactive) | 23.4 µM (inactive) | 37.7 µM (inactive) | 55.6 µM (inactive) | 37.6 µM (inactive) | 34.2 µM (inactive) | 31.4 µM (inactive) | 35.4 µM (inactive) | 39 µM (inactive) | 20.2 µM (inactive) | 32.4 µM (inactive) | 45.6 µM (inactive) |  |  | 35.2 µM (inactive)
O=C(NC12CC3CC(CC(C3)C1)C2)n1cnc2c(Cl)ncnc21 | > 100 µM (inactive) | 42.9 µM (inactive) | 22.7 µM (inactive) | 3.28 µM (inactive) | > 100 µM (inactive) | 27 µM (inactive) | > 100 µM (inactive) | 34.2 µM (inactive) | > 100 µM (inactive) |  | 27.2 µM (inactive) | 37 µM (inactive) | > 100 µM (inactive) | > 100 µM (inactive) | 81.1 µM (inactive) | 26.4 µM (inactive) | 25.8 µM (inactive) | 15 µM (inactive) | 35.2 µM (inactive)
C[N+]1(C)CC[N+](C)(C)[BH-]1C(O)O | > 100 µM (inactive) | > 100 µM (inactive) | > 100 µM (inactive) | > 100 µM (inactive) | > 100 µM (inactive) | > 100 µM (inactive) | > 100 µM (inactive) | > 100 µM (inactive) | > 100 µM (inactive) |  | > 100 µM (inactive) | > 100 µM (inactive) | > 100 µM (inactive) | > 100 µM (inactive) | > 100 µM (inactive) | > 100 µM (inactive) | > 100 µM (inactive) | > 100 µM (inactive) | > 100 µM (inactive)
Cn1c2ccccc2c2c3c(c4c5ccccc5n(C)c4c21)C(=O)NC3=O | 3.96 µM (inactive) | > 65.2 µM (inactive) | 15.1 µM (inactive) |  | 46.1 µM (inactive) | > 32.5 µM (inactive) | 18.2 µM (inactive) | > 36.7 µM (inactive) | > 45.3 µM (inactive) | 40.7 µM (inactive) | 16.8 µM (inactive) | > 74.6 µM (inactive) | 15.3 µM (inactive) | 3.89 µM (inactive) | > 32.9 µM (inactive) | > 31.4 µM (inactive) | > 54.6 µM (inactive) | > 100 µM (inactive) | 0.0589 µM (active)
CNC(=O)C1(N)c2ccccc2C=Cc2ccccc21 | > 100 µM (inactive) | > 100 µM (inactive) | > 100 µM (inactive) | > 100 µM (inactive) | > 100 µM (inactive) | > 100 µM (inactive) | > 100 µM (inactive) | > 100 µM (inactive) | > 100 µM (inactive) | > 100 µM (inactive) | > 100 µM (inactive) | > 100 µM (inactive) | > 100 µM (inactive) | > 100 µM (inactive) | > 100 µM (inactive) | > 100 µM (inactive) | > 100 µM (inactive) | > 100 µM (inactive) | 
S=C1c2cc(Cl)ccc2N=C(NC2CCCC2)C2CSCN12 (centres undefined) | > 41.4 µM (inactive) | > 100 µM (inactive) | 62.5 µM (inactive) |  | > 55 µM (inactive) | > 100 µM (inactive) | > 100 µM (inactive) | 60.5 µM (inactive) | 98.6 µM (inactive) | > 100 µM (inactive) | > 100 µM (inactive) | > 85.3 µM (inactive) | > 100 µM (inactive) | > 100 µM (inactive) | > 92.9 µM (inactive) | > 55.6 µM (inactive) | > 68.7 µM (inactive) | > 57.7 µM (inactive) | > 69.7 µM (inactive)
C=C1CC(COc2ccc3c(C)cc(=O)oc3c2)(c2ccccc2)OC1=O (centres undefined) | 5.47 µM (inactive) | 2.41 µM (inactive) | 2.34 µM (inactive) | 0.263 µM (active) | 2.24 µM (inactive) | 1.29 µM (inactive) | 1.62 µM (inactive) | 0.394 µM (active) | 2.28 µM (inactive) | 6.11 µM (inactive) | 10.4 µM (inactive) | 0.646 µM (active) | 15.2 µM (inactive) | 1.48 µM (inactive) | 1.61 µM (inactive) | 2.2 µM (inactive) | 0.356 µM (active) | 1.68 µM (inactive) | 
COC1(c2ccccc2)N=C(S)NN=C1c1ccccc1 (centres undefined) | 39.8 µM (inactive) | 85.1 µM (inactive) | 36.6 µM (inactive) | 21 µM (inactive) | 33.5 µM (inactive) | 44.2 µM (inactive) | 48.2 µM (inactive) | > 100 µM (inactive) | 19.1 µM (inactive) |  | 21.2 µM (inactive) | 38.6 µM (inactive) | 54.2 µM (inactive) | 41.7 µM (inactive) | 51.4 µM (inactive) | 31.4 µM (inactive) | 33.4 µM (inactive) | 35.4 µM (inactive) | 63.4 µM (inactive)
C=CCc1cccc2cc(C(=O)Nc3ccccc3)c(=N)oc12 | 38.9 µM (inactive) | 80.4 µM (inactive) | 79.8 µM (inactive) | > 100 µM (inactive) | 11.9 µM (inactive) | > 100 µM (inactive) |  | > 100 µM (inactive) | > 100 µM (inactive) | 36.6 µM (inactive) | > 100 µM (inactive) | > 100 µM (inactive) | > 100 µM (inactive) | 30.3 µM (inactive) | 41.1 µM (inactive) | 39.2 µM (inactive) | 64 µM (inactive) | > 100 µM (inactive) | > 100 µM (inactive)

— ChEMBL document CHEMBL1201862, “PubChem BioAssay data set” (2004)
